# Columns and labels:
# [1] = test system: psoriasis caused by imiquimod; assay: Epithelial thickness of back skin by H&E staining in imiquimod psoriasis model; type: in vivo, Balb/c mice; settings: after treatment for a week, compared to the IMQ group
# Source text: (§1) 6-week-old male Balb/c mice (Kangwon Life Science, Korea) were purchased and acclimated for a week, and psoriasis was induced using 5% imiquimod (Donga ST, Korea). FIG. 1 is a schematic experimental scheme of an animal model. Anti-psoriatic efficacy was investigated using a total of 20 animal models including 5 animals per experimental group.
# (§2) In order to determine the effect of the extract of Thalictrum squarrosum steph on psoriasis caused by imiquimod, the experimental animals of Section 2-1 were used. The following four experimental groups were constructed and five animals were randomly assigned to each group:
# (§3) The experiment was conducted by inducing psoriasis with IMQ cream and then performing daily application in the amount shown in FIG. 2 to the experimental group and the DEX group. FIG. 3 is an image showing the treatment group for 7 days compared to the psoriasis-induced model as the animal experimental model.
# After treatment for a week, the back skin tissue was removed from each animal, and then a paraffin block was prepared. The paraffin block was cut to 5 μm to prepare a slide sample, and then the change in the thickness of the skin tissue was measured through H&E staining.
# [2] = test system: filaggrin, loricrin, keratin 1 and keratin 14; assay: Biomarkers for epithelial tissue damage in back skin by immunofluorescence; type: in vivo, Balb/c mice; settings: after treatment for a week, versus IMQ group
# Source text: as §1, §2, §3
# After treatment for a week, back skin tissue was removed from each animal and a paraffin block was then prepared. A paraffin block was cut to 5 μm to prepare a slide sample, and then the change in biomarkers for epithelial tissue damage due to psoriasis was measured through immunofluorescence.
compound,measurement,setting,value
"C[C@@H]1C[C@H]2[C@@H]3CCC4=CC(=O)C=C[C@]4(C)[C@@]3(F)[C@@H](O)C[C@]2(C)[C@@]1(O)C(=O)CO [DEX, dexamethasone]",thickness of the epithelial layer,[1],decreased thickness
same,expression level of filaggrin,[2],increased
same,expression level of keratin 1,[2],increased
same,expression level of keratin 14,[2],increased
same,expression level of loricrin,[2],increased

# Reference: US11547735B2, “Composition for ameliorating psoriasis symptoms containing extract of Thalictrum squarrosum steph” (KOREA INSTITUTE OF SCIENCE AND TECHNOLOGY, priority 2020, dated 2023)
